According to patent publication US6906175B2, “Production of adenine nucleotide translocator (ANT), novel ANT ligands and screening assays therefor” (priority 1998, dated 2005):
Entries after “also recorded” stand apart in the source; their conditions may differ.

Columns and labels:
[1] = 125I-compound 24 competition binding (Tube Assay), mitochondria from control non-infected T. ni cells; conditions: control (nontransformed) T. ni mitochondria, 1 μg protein/tube; FIG. 15
Method: Atractyloside analogs (Example 6; Table 1; see also Examples 7-9) were also used in pseudo-homologous competition binding assays using T. ni/huANT3 mitochondria or bovine mitochondria. Mitochondria from noninfected T. ni cells, or T. ni cells infected with a baculovirus expressing huANT3 (see Example 3) were prepared as follows: […] cells were prepared by a subcontractor (PharMingen, San Diego, Calif.) as portions of about 250 mg of cells per tube. […]
(§1) The mitochondrial preparations were divided into aliquots (typically, 50μl for T. ni mitochondria or 20 μl for bovine mitochondria) and then either used directly in assays or flash frozen and stored at −80° C. The total protein content in the mitochondrial preparations was determined using the enhanced protocol (30 minutes at 60° C.; see http://www.ruf.rice.edu/˜bioslabs/methods/protein/BCA.html) of the bicinchoninic acid (BCA) assay (available in kit form from Pierce, Rockford, Ill.). […]
(§2) Unbound ^125I-compound 24 was removed by aspiration. […] The resultant pellets were aspirated and the radioactivity (dpm) in each was determined by gamma counting.

His-tagged huANT3 = target: T1, His-tagged huANT3 (Homo sapiens, UniProt P12236); test: 125I-compound 24 competition binding to recombinant His-tagged huANT3 immobilized on Ni beads; set-up: made in house; host or cells: baculovirus-infected Trichoplusia ni cells; mitochondria solubilized and captured on Ni-agarose beads (Qiagen); conditions: His-tagged huANT3 on Ni-agarose beads, 1 hour at 4° C.; FIG. 19
T1 sequence (P12236 1-298): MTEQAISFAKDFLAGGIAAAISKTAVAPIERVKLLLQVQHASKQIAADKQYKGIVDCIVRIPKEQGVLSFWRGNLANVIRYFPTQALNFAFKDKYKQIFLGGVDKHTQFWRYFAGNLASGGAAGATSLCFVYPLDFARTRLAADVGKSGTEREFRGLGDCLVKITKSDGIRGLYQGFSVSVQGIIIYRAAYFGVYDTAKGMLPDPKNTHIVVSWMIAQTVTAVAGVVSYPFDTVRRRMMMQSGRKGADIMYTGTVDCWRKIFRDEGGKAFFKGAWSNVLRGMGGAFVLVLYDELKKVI
Method: Competitive binding assays were also performed using recombinant His-tagged huANT3 (see Example 3) immobilized on Ni beads (FIG. 19) instead of mitochondria. To prepare the bead-immobilized huANT3, mitochondria from T. ni cells infected with a baculovirus expressing huANT3 (see Example 3) were solubilized with 0.5% O-glucopyranoside in the presence of 0.5 nM ^125I-compound 24 Ni-agarose beads (Qiagen, Hilden, Germany), and various concentrations of ATR or BKA as unlabeled competitors. After 1 hour at 4° C., the beads were washed and radioactivity that remained associated with the beads was counted.

[2] = target: T2, T. ni/huANT3 mitochondria (Homo sapiens, UniProt P12236); test: 125I-compound 24 competition binding (Tube Assay), mitochondria from T. ni cells expressing huANT3
T2 construct: expressed in transfected cells; host or cells: Trichoplusia ni cells infected with recombinant baculovirus (cells prepared by PharMingen); isolated mitochondria
T2 sequence (P12236 1-298): T1 sequence (P12236 1-298)
Method: Atractyloside analogs (Example 6; Table 1; see also Examples 7-9) were also used in pseudo-homologous competition binding assays using T. ni/huANT3 mitochondria or bovine mitochondria. Mitochondria from noninfected T. ni cells, or T. ni cells infected with a baculovirus expressing huANT3 (see Example 3) were prepared as follows: […] cells were prepared by a subcontractor (PharMingen, San Diego, Calif.) as portions of about 250 mg of cells per tube. Each portion was suspended in 1 ml of MSB with protease inhibitors (leupeptin, final concentration 10 ug/ml; pepstatin, final concentration 10 ug/ml; aprotinin, final concentration, 2 ug/ml; phenylmethylsulfonyl fluoride, [PMSF], final concentration, 100 μM; all from Sigma Chemical Co., St. Louis, Mo.). The resuspended cell suspensions were frozen and thawed twice, then homogenized using a rotating teflon-coated probe and a close-fitting glass container (10 passes). The cellular homogenate was centrifuged (3,700 rpm, approximately 1,500×g) at 4° C. for 5 minutes; this supernatant from the first spin was saved. The pellet was washed with about 500 μl of MSB with protease inhibitors, centrifuged (3,800 rpm, approximately 1,600×g) at 4° C. for 5 minutes, and supernatant from this spin was combined with the supernatant from the first spin. […]
as §1, §2

Sf9/huANT3 mitochondria [3] = target: T3, Sf9/huANT3 mitochondria (Homo sapiens, UniProt P12236); test: [125I]atractyloside competition binding to Sf9/huANT3 mitochondria; conditions: 0.5 nM [125I]atractyloside
T3 construct: expressed in transfected cells; host or cells: Spodoptera frugiperda Sf9 cells infected with recombinant baculovirus; isolated mitochondria
T3 sequence (P12236 1-298): T1 sequence (P12236 1-298)
Method: (§3) Sf9 cells expressing huANT3 were grown in spinner flasks. The cells were harvested by centrifugation at 2,000 g for 5 min. The cell pellet was resuspended in MSB and subjected to 3 freeze-thaw cycles. Cell membranes and debris were removed by centrifugation at 600 g for 5 min; mitochondria were collected by centrifuging the supernatant at 20,000 g for 15 min. The mitochondrial pellets were suspended in MSB, and used for binding assays as described above. Homologous competition of [^32P]ATP binding was performed using 25 μg mitochondrial protein per assay.
These findings are consistent with the presence of functional huANT3 in the mitochondrial preparations.
Atractyloside analogs (Example 6; Table 1; see also Examples 7-9) were used in pseudo-homologous competition binding assays using Sf9/huANT3 mitochondria. Mitochondria (see Example 12, 25 μg/tube) were incubated with 0.5 nM [^125I]atractyloside and varying concentrations of non-radiolabeled atractyloside or fluorescent atractyloside derivatives as described above (FIGS. 7-9).

Sf9/huANT3 mitochondria [4] = target: T3, Sf9/huANT3 mitochondria; test: Homologous competition of [32P]ATP binding to Sf9/huANT3 mitochondria; conditions: FIG. 8
Method: To estimate maximal binding and the extent of overexpression of the huANT3, 25 μg of membrane protein was incubated with varying amounts of [^32P]ATP (1-500 μM) in binding buffer (120 mM KCl, 10 mM Tris, 1 mM EDTA, pH 7.4) for 2 hr at room temperature. The membranes with bound ATP were sedimented by centrifugation at 5000 g for 5 min, and washed once with binding buffer. Membrane pellets were then mixed with 5 ml scintillation cocktail and counted.
as §3

C=C1[C@@H]2CCC3[C@@](CC[C@@H]4[C@H](C(=O)O)C[C@@H](O[C@@H]5O[C@H](CO)[C@@H](OS(=O)(=O)[O-])[C@H](OS(=O)(=O)[O-])[C@H]5OC(=O)CC(C)C)C[C@@]34C)(C2)[C@@H]1O.[K+].[K+] (stereo partly drawn) [ATR, atractyloside]
competitive inhibition of 125I-compound 24 binding (in words) [1]: only slight inhibition
competitive inhibition of 125I-compound 24 binding (in words) (His-tagged huANT3): effectively compete with compound 24
affinity relative to the low affinity ANT ligand ADP ([2]; mitochondria from T. ni cells expressing huANT3, 1 μg protein/tube, FIG. 14): about 1,000 fold
competitive inhibition of 125I-compound 24 binding (in words) ([2]; mitochondria from T. ni cells expressing huANT3, FIGS. 12, 14, 15): slightly higher affinity than compound 24; also recorded: increasingly inhibited by higher concentrations of ATR
cpm [125I]Atractyloside bound in the presence of ATR derivative (Sf9/huANT3 mitochondria [3]; [ATR Derivative] 1.0 nM): 224 cpm
cpm [125I]Atractyloside bound in the presence of ATR derivative (Sf9/huANT3 mitochondria [3]; [ATR Derivative] 5.0 nM): 146 cpm
cpm [125I]Atractyloside bound in the presence of ATR derivative (Sf9/huANT3 mitochondria [3]; [ATR Derivative] 10 nM): 42 cpm
cpm [125I]Atractyloside bound in the presence of ATR derivative (Sf9/huANT3 mitochondria [3]; [ATR Derivative] 50 nM): 26 cpm
cpm [125I]Atractyloside bound in the presence of ATR derivative (Sf9/huANT3 mitochondria [3]; [ATR Derivative] 1,000 nM): 36 cpm
cpm [125I]Atractyloside bound in the presence of ATR derivative (Sf9/huANT3 mitochondria [3]; [ATR Derivative] 5,000 nM): 45 cpm
cpm [125I]Atractyloside bound in the presence of ATR derivative (Sf9/huANT3 mitochondria [3]; [ATR Derivative] 10,000 nM): 0 cpm
displacement of ATP binding (Sf9/huANT3 mitochondria [4]): displaced by low concentrations of atractyloside
